Assay results taken from paper PMC11314129, “Synthesis, Computational Study, and In Vitro α-Glucosidase Inhibitory Action of Thiourea Derivatives Based on 3-Aminopyridin-2(1H)-Ones” (Molecules, 2024).
Entries after “also recorded” stand apart in the source; their conditions may differ.

Experiments:
[1] = target: T1, α-glucosidase from Saccharomyces cerevisiae (Saccharomyces cerevisiae, UniProt P53341); test: biochemical; assay type: biochemical; settings: for inhibition at 15000 µM: read-out: Inhibitory Activity of Test Compounds at a Concentration of 15 mM Against the α-Glucosidase Enzyme (%); for Inhibitory Activity of Test Compounds at a Concentration of 15 mM Against the α-Glucosidase Enzyme (%) / IC50 (mM): mean ± standard error of the mean; for Inhibitory Activity of Test Compounds at a Concentration of 15 mM Against the α-Glucosidase Enzyme (%): triplets; for IC50 (mM): from graph of enzyme activity vs concentration
T1 construct: purchased Sigma-Aldrich
Experimental: Antidiabetic activity was assessed by the degree of the inhibition of α-glucosidase activity by the test substances.
The study of the α-glucosidase activity inhibition degree by the test compounds was performed using a standard method with minor modifications.
Antidiabetic activity was assessed by the degree of inhibition of α-glucosidase activity by the test substances. The α-glucosidase enzyme determines the extent to which glucose enters the bloodstream from the gastrointestinal tract. […] The enzyme (α-glucosidase from Saccharomyces cerevisiae, Sigma-Aldrich, St. Louis, MO, USA, 1.0 U/mL) in phosphate-buffered saline was incubated with various concentrations of test compounds at 37 °C for 15 min. All the studied substances were dissolved in 40% DMSO. Then, 5 mM p-nitrophenyl α-d-glucopyranoside was added to the mixture as a substrate. The mixture was incubated at […] for 20 min. The absorbance was measured spectrophotometrically at 405 nm. The sample solution was replaced by 40% DMSO as a control. […] All samples were studied in triplets.
Inhibitory activity was expressed as a percentage (%) according to the degree of inhibition of α-glucosidase in comparison with the negative control. It was calculated using the following formula:
Inhibitory activity (%) = (1 − As/Ac) × 100%, where As is the optical density of the test compound, and Ac is the optical density of control.
The IC50 was determined from the graph of enzyme activity changes depending on the sample concentration.
The statistical processing of the results was carried out using the “Excel 2019” program.

[2] = system: glucose-6-phosphatase; set-up: method as in PMID 33304132; settings: Swiss albino mice, cited from earlier work

T1 sequence (P53341 whole entry): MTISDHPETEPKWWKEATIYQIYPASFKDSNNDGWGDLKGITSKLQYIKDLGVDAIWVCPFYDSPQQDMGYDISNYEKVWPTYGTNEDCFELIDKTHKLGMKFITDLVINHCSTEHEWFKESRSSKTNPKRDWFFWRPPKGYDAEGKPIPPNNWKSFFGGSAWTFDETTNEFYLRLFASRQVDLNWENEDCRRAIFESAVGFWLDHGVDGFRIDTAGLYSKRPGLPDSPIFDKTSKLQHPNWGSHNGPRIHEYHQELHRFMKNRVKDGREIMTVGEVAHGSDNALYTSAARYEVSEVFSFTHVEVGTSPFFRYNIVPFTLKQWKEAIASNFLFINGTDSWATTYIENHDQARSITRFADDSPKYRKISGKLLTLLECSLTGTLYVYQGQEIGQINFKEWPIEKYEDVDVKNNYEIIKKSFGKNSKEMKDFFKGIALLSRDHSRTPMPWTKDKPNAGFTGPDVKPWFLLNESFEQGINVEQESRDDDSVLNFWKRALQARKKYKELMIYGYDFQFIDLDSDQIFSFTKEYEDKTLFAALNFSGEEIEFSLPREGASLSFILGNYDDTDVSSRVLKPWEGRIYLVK

Structure (SMILES) | IC50 [1] | inhibition at 15000 µM [1] | inhibitory activity against α-glucosidase (in words) [1] | Inhibitory Activity of Test Compounds at a Concentration of 15 mM Against the α-Glucosidase Enzyme (%) [1] | IC50 (mM) [1] | melting point | inhibition of the enzyme glucose-6-phosphatase ([2]; streptozotocin diabetes) | safety for use in animals [2]
C=CCNC(=S)Nc1c(-c2ccccc2)cc(C)[nH]c1=O [Compound 8b, 1-allyl-3-(6-methyl-2-oxo-4-phenyl-1,2-dihydropyridin-3-yl)thiourea] | 19.8 ± 2.55 mM | 26.9 ± 2.5% | – | – | – | – | – | –
CC(=O)NC(=S)Nc1c(-c2ccccc2)cc(C)[nH]c1=O [Compound 10b, N-((6-Methyl-2-oxo-4-phenyl-1,2-dihydropyridin-3-yl)carbamothioyl)acetamide] | – | – | did not show inhibitory activity; also recorded: showed no inhibitory activity | No activity | No activity | 249 to 251 °C | – | –
Cc1cc(-c2cccs2)c(NC(=S)Nc2ccccc2)c(=O)[nH]1 [Compound 9c, 1-(6-Methyl-2-oxo-4-(thiophen-2-yl)-1,2-dihydropyridin-3-yl)-3-phenylthiourea] | – | 41.2 ± 2.5% | – | – | – | 145 to 147 °C | – | –
Cc1cc(-c2ccccc2)c(NC(=S)NC(=O)c2ccccc2)c(=O)[nH]1 [Compound 11b, N-[(6-Methyl-2-oxo-4-phenyl-1,2-dihydropyridin-3-yl)carbamothioyl]benzamide] | – | – | did not show inhibitory activity; also recorded: showed no inhibitory activity | No activity | No activity | 218 to 220 °C | – | –
CC(=O)NC(=S)Nc1c(-c2cccs2)cc(C)[nH]c1=O [Compound 10c, N-((6-Methyl-2-oxo-4-(thiophen-2-yl)-1,2-dihydropyridin-3-yl)carbamothioyl)acetamide] | – | – | did not show inhibitory activity; also recorded: showed no inhibitory activity | No activity | No activity | 252 to 254 °C | – | –
CC(=O)NC(=S)Nc1c(C)cc(C)[nH]c1=O [Compound 10a, N-((4,6-Dimethyl-2-oxo-1,2-dihydropyridin-3-yl)carbamothioyl)acetamide] | – | – | did not show inhibitory activity; also recorded: showed no inhibitory activity | No activity | No activity | 273 to 275 °C | – | –
Cc1cc(-c2cccs2)c(NC(=S)NC(=O)c2ccccc2)c(=O)[nH]1 [Compound 11c, N-((6-Methyl-2-oxo-4-(thiophen-2-yl)-1,2-dihydropyridin-3-yl)carbamothioyl)benzamide] | – | – | did not show inhibitory activity; also recorded: showed no inhibitory activity | No activity | No activity | 245 to 249 °C | – | –
C=CCNC(=S)Nc1c(C)cc(C)[nH]c1=O [Compound 8a, 1-allyl-3-(4,6-dimethyl-2-oxo-1,2-dihydropyridin-3-yl)thiourea] | 16.6 ± 1.57 mM | 23.3 ± 1.7% | – | – | – | – | – | –
Cc1cc(C)c(NC(=S)NC(=O)c2ccccc2)c(=O)[nH]1 [Compound 11a, N-((4,6-Dimethyl-2-oxo-1,2-dihydropyridin-3-yl)carbamothioyl)benzamide] | – | – | did not show inhibitory activity; also recorded: showed no inhibitory activity | No activity | No activity | 230 to 232 °C | – | –
C[C@H]1O[C@H](O[C@H]2[C@H](O)[C@@H](O)[C@@H](O[C@H]3[C@H](O)[C@@H](O)C(O)O[C@@H]3CO)O[C@@H]2CO)[C@H](O)[C@@H](O)[C@@H]1N[C@H]1C=C(CO)[C@@H](O)[C@H](O)[C@H]1O (stereo partly shown) [Acarbose, reference compound] | – | 46.1 ± 4.6% | – | – | – | – | – | –
Cc1cc(C)c(NC(=S)Nc2ccccc2)c(=O)[nH]1 [Compound 9a, 1-(4,6-Dimethyl-2-oxo-1,2-dihydropyridin-3-yl)-3-phenylthiourea] | 9.77 ± 0.83 mM | 56.6 ± 2.2% | – | – | – | 140 to 143 °C | – | –
C=CCNC(=S)Nc1c(-c2cccs2)cc(C)[nH]c1=O [Compound 8c, 1-Allyl-3-(6-methyl-2-oxo-4-(thiophen-2-yl)-1,2-dihydropyridin-3-yl)thiourea] | – | – | did not show inhibitory activity; also recorded: showed no inhibitory activity | No activity | No activity | 289 to 292 °C | – | –
S=C(NC(c1ccccn1)C(Cc1ccccc1)Cc1ccccc1)NC(c1ccccn1)C(Cc1ccccc1)Cc1ccccc1 (stereo not shown) [Compound 4, 1,3-bis(2-benzyl-3-phenyl-1-(pyridine-2-yl)propyl)thiourea] | – | – | – | – | – | – | highest inhibition value | without having any toxic or lethal effects
Cc1cc(-c2ccccc2)c(NC(=S)Nc2ccccc2)c(=O)[nH]1 [Compound 9b, 1-(6-Methyl-2-oxo-4-phenyl-1,2-dihydropyridin-3-yl)-3-phenylthiourea] | 21.8 ± 2.65 mM | 35.2 ± 3.4% | – | – | – | 141 to 144 °C | – | –
